Measurements taken from PMC7407945, “Ranacyclin-NF, a Novel Bowman–Birk Type Protease Inhibitor from the Skin Secretion of the East Asian Frog, Pelophylax nigromaculatus” (Biology, 2020).
Bridge positions count the residues as written; N and C are the ends. Peptide text beside a SMILES is read from it.

What was measured:
MRSA = assay: Checkerboard assay, peptide with Gentamicin; type: cell-based, Staphylococcus aureus; details: peptide with Gentamicin, class by ΣFIC
Procedure: Then, the microorganism cultures (1 × 10^6 cfu/mL) were inoculated into the plate wells and incubated at 37 °C for 18 h. The optical densities of the cultures were measured using an ELISA plate reader (Biotech Minneapolis, MN, USA). The lowest cumulative fractional inhibitory concentration (ΣFIC) was calculated with the following equation:(1) ΣFIC=Compound A treated in combination/Compound A, test in alone+Compound B treated in combination/Compound B, test in alone
ΣFIC ≤ 0.5 indicates synergy; 0.5 < Σ FIC ≤ 4 indicates an additive effect; and Σ FIC > 4 represents an antagonistic effect.

chymotrypsin = chymotrypsin (Bos taurus, UniProt P00766); assay: Chymotrypsin inhibition assay; type: biochemical; set-up: key: N.I.: there was no inhibitory activity; details: substrate Succinyl-Ala-Ala-Pro-Phe-NHMec
Procedure: Trypsin and chymotrypsin inhibition assays were performed as previously described. The substrate of trypsin and chymotrypsin were Phe-Pro-Arg-AMC and Succinyl-Ala-Ala-Pro-Phe-NHMec, respectively, and obtained from Bachem, Merseyside, UK. In the tryptase inhibition assay, peptide samples were first dissolved in tryptase assay buffer pH 7.6, containing 0.05 M Tris, 0.15 M NaCl and 0.2% (w/v) PEG 6000 (final volume 210 μL) to obtain different concentrations of 0.5, 1, 2 and 4 mM and then added to the wells of a black 96-well plate containing (Boc-Phe-Ser-Arg-NHMec, obtained from Bachem, Merseyside, UK) (50 μM). Before measurement, tryptase (2.5 μL from 1 mg/mL stock solution, Calbiochem, Nottingham, UK) was added to each well. The rate of hydrolysis of substrate was monitored continuously at 37 °C and 460 nm with a Fluostar Optima plate reader (BMG Labtech GmbH, Offenburg, Germany)

CC(C)C[C@H](NC(=O)[C@H](C)NC(=O)CN)C(=O)N[C@@H](CCCNC(=N)N)C(=O)NCC(=O)N[C@H]1CSSC[C@@H](C(=O)N[C@@H](Cc2ccccc2)C(N)=O)NC(=O)[C@@H]2CCCN2C(=O)[C@H](CCC(N)=O)NC(=O)[C@@H]2CCCN2C(=O)[C@@H]2CCCN2C(=O)[C@H](Cc2ccc(O)cc2)NC(=O)[C@H](CO)NC(=O)[C@H](CCCCN)NC(=O)[C@H]([C@@H](C)O)NC(=O)[C@H](Cc2c[nH]c3ccccc23)NC1=O [RNF3L] (H-GALRGCWTKSYPPQPCF-NH2; disulfide 6-16; N-terminus assumed)
effect of the combination with Gentamicin (MRSA): additive effect (0.5 < Σ FIC ≤ 4 indicates an additive effect)
Ki(µM) of Chymotrypsin (chymotrypsin): N.I.
